From patent publication US12209087B2, “AKT1 modulators” (Alterome Therapeutics, Inc., priority 2022, dated 2025)

Biological target: T1, full length AKT E17K (Homo sapiens, UniProt P31749, E17K)
T1 construct: host or cells: HEK-293 (ATCC CRL-1573)
Experiment: NanoBRET Target Engagement (TE) Assay
Assay type: cell-based
Conditions: competitive tracer displacement in living cells, read-out: AKT1 E17K IC50
Summary of the method: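 Compound and tracer incubated 2 h before luminescence at donor 450 nm and acceptor 600 nm, with extracellular signal inhibited. EC50 by sigmoidal variable-slope regression.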

T1 sequence (P31749 whole entry E17K): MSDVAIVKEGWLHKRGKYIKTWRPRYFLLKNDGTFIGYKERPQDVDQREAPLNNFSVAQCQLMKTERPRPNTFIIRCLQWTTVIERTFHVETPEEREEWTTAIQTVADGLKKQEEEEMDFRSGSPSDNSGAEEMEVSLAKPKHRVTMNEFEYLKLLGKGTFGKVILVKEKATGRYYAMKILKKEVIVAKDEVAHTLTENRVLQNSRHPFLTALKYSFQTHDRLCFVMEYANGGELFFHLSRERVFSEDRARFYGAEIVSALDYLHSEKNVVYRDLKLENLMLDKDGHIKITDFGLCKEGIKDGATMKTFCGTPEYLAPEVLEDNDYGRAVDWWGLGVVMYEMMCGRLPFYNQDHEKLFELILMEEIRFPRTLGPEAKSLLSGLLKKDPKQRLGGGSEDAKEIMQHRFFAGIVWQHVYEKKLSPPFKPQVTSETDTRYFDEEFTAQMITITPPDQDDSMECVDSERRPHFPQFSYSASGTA

IC50 [nM]	Structure (SMILES)
600 to 10000	N#Cc1ccncc1C(=O)NCc1ccc(-n2c(-c3cccnc3N)nc3cccnc32)cc1 [Example 100, N-(4-(2-(2-Aminopyridin-3-yl)-3H-imidazo[4,5-b]pyridin-3-yl)benzyl)-4-cyanonicotinamide]
600 to 10000	N#Cc1cccnc1C(=O)NCc1ccc(-n2c(-c3cccnc3N)nc3cccnc32)cc1 [Example 101, N-(4-(2-(2-Aminopyridin-3-yl)-3H-imidazo[4,5-b]pyridin-3-yl)benzyl)-3-cyanopicolinamide]
600 to 10000	N#Cc1ccc(C(=O)N2CCN(Cc3ccc(-n4c(-c5cccnc5N)nc5cccnc54)cc3)CC2)cn1 [Example 102, 5-(4-(4-(2-(2-Aminopyridin-3-yl)-3H-imidazo[4,5-b]pyridin-3-yl)benzyl)piperazine-1-carbonyl)picolinonitrile]
600 to 10000	N#Cc1ccc(C(=O)NCc2ccc(-n3c(-c4cccnc4N)nc4cc(-c5ccccc5)cnc43)cc2)cn1 [Example 106, N-(4-(2-(2-Aminopyridin-3-yl)-6-phenyl-3H-imidazo[4,5-b]pyridin-3-yl)benzyl)-6-cyanonicotinamide]
600 to 10000	N#Cc1cc(C(=O)NC2CCN(Cc3ccc(-n4c(-c5cccnc5N)nc5cc(-c6ccccc6)cnc54)cc3)CC2)ccn1 [Example 107, N-(1-(4-(2-(2-Aminopyridin-3-yl)-6-phenyl-3H-imidazo[4,5-b]pyridin-3-yl)benzyl)piperidin-4-yl)-2-cyanoisonicotinamide]
600 to 10000	N#Cc1cccc(C(=O)NCc2ccc(-n3c(-c4cccnc4N)nc4cccnc43)cc2)n1 [Example 108, N-(4-(2-(2-Aminopyridin-3-yl)-3H-imidazo[4,5-b]pyridin-3-yl)benzyl)-6-cyanopicolinamide]
600 to 10000	N#Cc1cc(C(=O)N2CCN(Cc3ccc(-n4c(-c5cccnc5N)nc5cccnc54)cc3)CC2)ccn1 [Example 109, 4-(4-(4-(2-(2-Aminopyridin-3-yl)-3H-imidazo[4,5-b]pyridin-3-yl)benzyl)piperazine-1-carbonyl)picolinonitrile]
600 to 10000	N#Cc1cccnc1C(=O)N1CCN(Cc2ccc(-n3c(-c4cccnc4N)nc4cccnc43)cc2)CC1 [Example 110, 2-(4-(4-(2-(2-Aminopyridin-3-yl)-3H-imidazo[4,5-b]pyridin-3-yl)benzyl)piperazine-1-carbonyl)nicotinonitrile]
600 to 10000	N#Cc1ccc(C(=O)N2CCN(Cc3ccc(-n4c(-c5cccnc5N)nc5cc(-c6ccccc6)cnc54)cc3)CC2)cn1 [Example 111, 5-(4-(4-(2-(2-Aminopyridin-3-yl)-6-phenyl-3H-imidazo[4,5-b]pyridin-3-yl)benzyl)piperazine-1-carbonyl)picolinonitrile]
600 to 10000	N#Cc1cc(C(=O)NCc2ccc(-n3c(-c4cccnc4N)nc4cccnc43)cc2)ncn1 [Example 113, N-(4-(2-(2-Aminopyridin-3-yl)-3H-imidazo[4,5-b]pyridin-3-yl)benzyl)-6-cyanopyrimidine-4-carboxamide]
60 to 600	N#Cc1cc(C(=O)N2CCN(Cc3ccc(-n4c(-c5cccnc5N)nc5cccnc54)cc3)CC2)ncn1 [Example 114, 6-(4-(4-(2-(2-Aminopyridin-3-yl)-3H-imidazo[4,5-b]pyridin-3-yl)benzyl)piperazine-1-carbonyl)pyrimidine-4-carbonitrile]
< 15	N#Cc1cc(C(=O)N2CCN(Cc3ccc(-n4c(-c5cccnc5N)nc5ccc(-c6ccccc6)nc54)cc3)CC2)ncn1 [Example 116, 6-(4-(4-(2-(2-Aminopyridin-3-yl)-5-phenyl-3H-imidazo[4,5-b]pyridin-3-yl)benzyl)piperazine-1-carbonyl)pyrimidine-4-carbonitrile]
15 to 60	N#Cc1cc(C(=O)NC2CCN(Cc3ccc(-n4c(-c5cccnc5N)nc5ccc(-c6ccccc6)nc54)cc3)CC2)ncn1 [Example 117, N-(1-(4-(2-(2-aminopyridin-3-yl)-5-phenyl-3H-imidazo[4,5-b]pyridin-3-yl)benzyl)piperidin-4-yl)-6-cyanopyrimidine-4-carboxamide]
600 to 10000	N#Cc1ncc(C(=O)NCc2ccc(-n3c(-c4cccnc4N)nc4cccnc43)cc2)cn1 [Example 119, N-(4-(2-(2-Aminopyridin-3-yl)-3H-imidazo[4,5-b]pyridin-3-yl)benzyl)-2-cyanopyrimidine-5-carboxamide]
600 to 10000	N#Cc1ccc(C(=O)NCc2ccc(-n3c(-c4cccnc4N)nc4cccnc43)cc2)cn1 [Example 121, N-(4-(2-(2-Aminopyridin-3-yl)-3H-imidazo[4,5-b]pyridin-3-yl)benzyl)-6-cyanonicotinamide]
600 to 10000	N#Cc1cc(C(=O)NCc2ccc(-n3c(-c4cccnc4N)nc4cccnc43)cc2)ccn1 [Example 122, N-(4-(2-(2-Aminopyridin-3-yl)-3H-imidazo[4,5-b]pyridin-3-yl)benzyl)-2-cyanoisonicotinamide]
600 to 10000	N#Cc1cncc(C(=O)NCc2ccc(-n3c(-c4cccnc4N)nc4cccnc43)cc2)c1 [Example 123, N-(4-(2-(2-Aminopyridin-3-yl)-3H-imidazo[4,5-b]pyridin-3-yl)benzyl)-5-cyanonicotinamide]
600 to 10000	N#Cc1ccc(C(=O)NCc2ccc(-n3c(-c4cccnc4N)nc4cccnc43)cc2)nc1 [Example 124, N-(4-(2-(2-Aminopyridin-3-yl)-3H-imidazo[4,5-b]pyridin-3-yl)benzyl)-5-cyanopicolinamide]
600 to 10000	N#Cc1cc(NCc2ccc(-n3c(-c4cccnc4N)nc4cccnc43)cc2)ccn1 [Example 127, 4-((4-(2-(2-Aminopyridin-3-yl)-3H-imidazo[4,5-b]pyridin-3-yl)benzyl)amino)picolinonitrile]
600 to 10000	N#Cc1ccc(NCc2ccc(-n3c(-c4cccnc4N)nc4cccnc43)cc2)cn1 [Example 128, 5-((4-(2-(2-Aminopyridin-3-yl)-3H-imidazo[4,5-b]pyridin-3-yl)benzyl)amino)picolinonitrile]
600 to 10000	N#Cc1cccc(NCc2ccc(-n3c(-c4cccnc4N)nc4cccnc43)cc2)n1 [Example 130, 6-((4-(2-(2-Aminopyridin-3-yl)-3H-imidazo[4,5-b]pyridin-3-yl)benzyl)amino)picolinonitrile]
600 to 10000	N#Cc1cncc(NCc2ccc(-n3c(-c4cccnc4N)nc4cccnc43)cc2)c1 [Example 131, 5-((4-(2-(2-Aminopyridin-3-yl)-3H-imidazo[4,5-b]pyridin-3-yl)benzyl)amino)nicotinonitrile]
600 to 10000	N#Cc1ccnc(NCc2ccc(-n3c(-c4cccnc4N)nc4cccnc43)cc2)c1 [Example 132, 2-((4-(2-(2-Aminopyridin-3-yl)-3H-imidazo[4,5-b]pyridin-3-yl)benzyl)amino)isonicotinonitrile]
600 to 10000	N#Cc1cncc(NCc2ccc(-n3c(-c4cccnc4N)nc4cccnc43)cc2)n1 [Example 133, 6-((4-(2-(2-Aminopyridin-3-yl)-3H-imidazo[4,5-b]pyridin-3-yl)benzyl)amino)pyrazine-2-carbonitrile]
600 to 10000	N#Cc1ccnc(NCc2ccc(-n3c(-c4cccnc4N)nc4cccnc43)cc2)n1 [Example 134, 2-((4-(2-(2-Aminopyridin-3-yl)-3H-imidazo[4,5-b]pyridin-3-yl)benzyl)amino)pyrimidine-4-carbonitrile]
